Measured values from article PMC3966057 (Theranostics, 2014).

Key:
RAW264.7 cells = assay: RAW 264.7 macrophage cell efflux of 18F-DPA-714; format: cell-based, mouse; settings: 2 h incubation with tracer
A549 tumors = assay: 18F-DPA-714 PET imaging of A549 xenograft tumor model; format: in vivo, mouse; settings: PET 1 h p.i., tumor volume 100-300 mm^3, athymic nude mice, mean ± SD
HT29 tumors = assay: 18F-DPA-714 PET imaging of HT29 xenograft tumor model; format: in vivo, mouse; settings: PET 1 h p.i., tumor volume 100-300 mm^3, athymic nude mice, mean ± SD
U87MG tumors = assay: 18F-DPA-714 PET imaging of U87MG xenograft tumor model; format: in vivo, mouse; settings: PET 1 h p.i., tumor volume 100-300 mm^3, athymic nude mice, mean ± SD
INS-1 tumors = assay: 18F-DPA-714 PET imaging of INS-1 xenograft tumor model; format: in vivo, mouse; settings: PET 1 h p.i., tumor volume 100-300 mm^3, athymic nude mice, mean ± SD
4T1 tumors = assay: 18F-DPA-714 PET imaging of 4T1 xenograft tumor model; format: in vivo, mouse; settings: PET 1 h p.i., tumor volume 100-300 mm^3, FVB mice, mean ± SD

A549 tumor uptake of 18F-DPA-714 (A549 tumors): 0.46 ± 0.28 %ID/g | HT29 tumor uptake of 18F-DPA-714 (HT29 tumors): 0.91 ± 0.08 %ID/g | U87MG tumor uptake of 18F-DPA-714 (U87MG tumors): 1.69 ± 0.67 %ID/g | INS-1 tumor uptake of 18F-DPA-714 (INS-1 tumors): 1.13 ± 0.33 %ID/g | 4T1 tumor uptake of 18F-DPA-714 (4T1 tumors): 1.22 ± 0.55 %ID/g
SMILES: CCN(CC)C(=O)Cc1c(-c2ccc(OCC[18F])cc2)nn2c(C)cc(C)nc12 [18F-DPA-714]
Tracer retention after 1 h efflux as share of uptake (RAW264.7 cells): around 50%
